This is an account of results in patent publication EP0542497A1, “Heterocyclic compounds” (THE WELLCOME FOUNDATION LIMITED, priority 1991, dated 1993).

In general, EC50 refers to the concentration giving half of the maximal effect.

SMILES strings stand for the structures. Structures can show the parent of a compound that is named as a salt. Some results are limits rather than exact numbers.

The target of data set [1] is T1, human dihydrofolate reductase (Homo sapiens, UniProt P00374).
T1 sequence (P00374 1-187): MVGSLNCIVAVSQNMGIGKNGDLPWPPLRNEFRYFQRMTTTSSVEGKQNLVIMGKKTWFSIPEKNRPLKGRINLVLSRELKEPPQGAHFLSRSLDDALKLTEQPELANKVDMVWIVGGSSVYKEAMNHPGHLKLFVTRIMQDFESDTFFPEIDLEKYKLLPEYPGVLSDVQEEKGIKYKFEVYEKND
Description: DHFR I50, human enzyme. The class given is biochemical.

Data set [2] has as its target T2, DHFR (Candida albicans, UniProt P22906).
T2 sequence (P22906 1-192): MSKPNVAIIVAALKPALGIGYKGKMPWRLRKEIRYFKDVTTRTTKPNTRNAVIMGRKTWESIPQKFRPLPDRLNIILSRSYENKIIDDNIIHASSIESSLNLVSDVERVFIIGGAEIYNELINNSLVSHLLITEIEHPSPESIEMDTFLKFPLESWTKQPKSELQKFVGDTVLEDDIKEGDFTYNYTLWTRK
Description: biochemical. The note with it: C.albicans enzyme; read-out: DHFR I50 C.albicans.

Data set [3] relates to CCRF-CEM T cells. The experiment in a line: Cytotoxicity in cell culture (inhibition of cell growth). Type of data set: cell-based. Particulars: human line, continuous exposure 72 hours. Here is the method: (§1) The cytotoxic effects of various compounds were measured by the inhibition of mammalian cell growth in culture. Cell lines were grown in RPMI-1640 media prepared without folic acid but supplemented with 10nM calcium leucovorin, 25mM HEPES and 10% dialysed fetal bovine serum. In the case of human medulloblastoma cells (Daoy), the media (containing undialysed 10% fetal bovine serum) was pretreated with the enzyme thymidine phosphorylase (20 units/ml for 30 mins. at 37°C) to remove endogenous thymidine. Cells were seeded into 96 well microtiter plates (at densities determined to give log phase growth of control cells at the end of the assay) in 150µl of medium and grown at 37°C in a humidified incubator at 6% CO₂ for 24 hours. Compounds were prepared in media at four times the highest concentration to be tested; two-fold serial dilutions were made, and compounds were added to cells. […] The EC₅₀, defined as the concentration of compound required to reduce growth to 50% of the control, was determined from a plot of per cent inhibition versus log concentration. Cells were continuously exposed to inhibitor for 72 hours.

The test system of data set [4] is S180 sarcoma. The data set is described as above. The class given is cell-based. The note with it: S-180, mouse line, continuous exposure 72 hours. Here is the method:
as §1

The subject of data set [5] is D98 bone marrow cells. The description is as above. The class given is cell-based. The note with it: human line, continuous exposure 72 hours. Here is the method: as §1
In data set [6] the test system is Ehrlich ascites carcinoma. The data set is described as above. Particulars: mouse line, continuous exposure 72 hours. Type of data set: cell-based. Here is the method:
as §1

Data set [7] relates to L cells (derived from connective tissue). Described as above. The note with it: mouse line, continuous exposure 72 hours. Type of data set: cell-based. Here is the method: as §1
For data set [8], the system named is P388 lymphoid neoplasm. Described as above. The class given is cell-based. Particulars: mouse line, continuous exposure 72 hours. Here is the method:
as §1

In data set [9] the test system is Daoy medulloblastoma. Described as above. The note with it: human line, continuous exposure 72 hours, medium pretreated with thymidine phosphorylase. The class given is cell-based. Here is the method:
as §1

The subject of data set [10] is MCF7 breast adenocarcinoma. Described as above. The class given is cell-based. Particulars: human line, continuous exposure 72 hours. Here is the method:
as §1

Data set [11] concerns GC3C1 colon carcinoma. The description is as above. Type of data set: cell-based. The note with it: GC3/C1, human line, continuous exposure 72 hours. Here is the method: as §1
For data set [12], the system named is KB3-1 epidermoid carcinoma. The data set is described as above. Particulars: KB 3-1, human line, continuous exposure 72 hours. The class given is cell-based. Here is the method: as §1
Data set [13] has as its system HCT8 colon adenocarcinoma. The data set is described as above. The class given is cell-based. The note with it: HCT-8, human line, continuous exposure 72 hours. Here is the method:
as §1

Data set [14] can be described thus: Brain distribution in mice (brain and plasma concentrations by HPLC). Particulars: female CD1 mice, 30 or 40 minutes after dose; Compound 1 17mg/kg i.v., Compound 2 10mg/kg i.v., piritrexim 200mg/kg i.p., trimetrexate 100mg/kg i.p.; average of several experiments. The class given is in vivo. Here is the method:
Female CD1 mice were dosed with Compound 1 (17mg/kg, i.v.), Compound 2 (10mg/kg, i.v.), piritrexim (200mg/kg,i.p.) or trimetrexate (100mg/kg, i.p.). Brain and plasma samples were collected 30 or 40 minutes later. The drugs were extracted from the samples, and their concentrations were determined using HPLC. The numbers represent the average of several experiments.

Turning to `COCC(COC)n1ccc2c3c(N)nc(N)nc3ccc21` [Compound 7e, 1,3-diamino-7-(2-methoxy-1-methoxymethyl)ethyl-7H-pyrrolo(3,2-f)quinazoline], the values for the IC50 in data set [1] and in data set [2] were 8.4 nM and 8.9 nM, respectively.

For the molecule `Nc1nc(N)c2c(ccc3c2ccn3C2C=CCCC2)n1` (stereo not drawn) [Compound 7g, 1,3-diamino-7-(2-cyclohexen-1-yl)-7H-pyrrolo(3,2-f)quinazoline], the IC50 in data set [1] is 33 nM; in data set [2], 6 nM.

`COc1ccc(OC)c(Cc2cnc3nc(N)nc(N)c3c2C)c1` [Piritrexim, 2,4-diamino-6(2,5-dimethoxybenzyl)5-methylpyrido(2,3-d)pyrimidine, reference compound]: the 50% effective concentration (EC50) in data set [3] is 15 nM; in [4], 10 nM; in data set [5] it was 195 nM; in data set [6], 4 nM; in data set [7], 5.2 nM; in data set [8], 23 nM. The EC50 in data set [9] came out at 48 nM; in [10], 175 nM; in [11], 7.6 nM; in data set [12], 340 nM; in [13] it was 1.3 nM. Further, the Tissue concentration brain in [14] is reported as 2.3 µg/g. The Tissue concentration plasma in [14] came to 4.2 µg/mL.

In the case of `Cc1cc2c3c(N)nc(N)nc3ccc2n1C(C)C` [Compound 8a, 1,3-diamino-7-isopropyl-8-methyl-7H-pyrrolo(3,2-f)quinazoline], the IC50 in [1] was found to be 9 nM; in data set [2], 4 nM.

`CCC(CC)n1c(CCCCl)cc2c3c(N)nc(N)nc3ccc21` [Compound 9f, 1,3-diamino-8-(3-chloropropyl)-7-(1-ethylpropyl)-7H-pyrrolo(3,2-f)quinazoline]: the IC50 was below 1 nM in [1] and 4.3 nM in data set [2].

As to `CCCC(C)n1ccc2c3c(N)nc(N)nc3ccc21` (stereo not drawn) [Compound 7b, 1,3-diamino-7-(1-methylbutyl)-7H-pyrrolo(3,2-f)quinazoline], the values for the IC50 in data set [1] and in [2] were 11 nM and 7 nM, respectively.

For the molecule `CCC(C(C)C)n1ccc2c3c(N)nc(N)nc3ccc21` (stereo not drawn) [Compound 7c, 1,3-diamino-7-(1-ethyl-2-methylpropyl)-7H-pyrrolo(3,2-f)quinazoline], the results for the IC50 in data set [1] and in data set [2] were below 2 nM and 3 nM, respectively.

As to `CCc1cc2c3c(N)nc(N)nc3ccc2n1C(C)CC` (stereo not drawn) [Compound 9e, 1,3-diamino-8-ethyl-7-sec-butyl-7H-pyrrolo(3,2-f)quinazoline], the IC50 in [1] and in data set [2] was below 1 nM each time.

Turning to `CN(Cc1cnc2nc(N)nc(N)c2n1)c1ccc(C(=O)N[C@@H](CCC(=O)O)C(=O)O)cc1` [Methotrexate, N-[4[[(2,4-diamino-6-pteridinyl)methyl]methylamino]benzoyl]-L-glutamic acid, reference compound], the concentration giving a half-maximal response (EC50) in data set [3] is 1.9 nM; in data set [4], 18.7 nM; in [5], 47 nM; in [6], 8.5 nM; in data set [7], 75 nM; in [8], 2.7 nM. For the same molecule, the EC50 in [9] was 21 nM; in data set [10] it was 12 nM; in data set [11] it was 12 nM; in data set [12], 20 nM; in [13] it was 7.3 nM.

As to `CCC(C)n1ccc2c3c(N)nc(N)nc3ccc21` (stereo not drawn) [Compound 7a, 1,3-diamino-7-sec-butyl-7H-pyrrolo(3,2-f)quinazoline], the figures for the IC50 in data set [1] and in data set [2] were 18 nM and 10 nM, respectively.

In the case of `CC(C)n1c(C(C)(C)C)cc2c3c(N)nc(N)nc3ccc21` [Compound 9c, 1,3-diamino-8-tert-butyl-7-isopropyl-7H-pyrrolo(3,2-f)quinazoline], the IC50 in data set [1] and in data set [2] was below 1 nM throughout.

On to `CCCC(CC)n1ccc2c3c(N)nc(N)nc3ccc21` (stereo not drawn) [Compound 3, 1,3-Diamino-7-(1-ethylbutyl)-7H-pyrrolo[3,2-f]quinazoline], for which the values for the IC50 in data set [1] and in data set [2] were below 1 nM and 2 nM, respectively.

Turning to `CCC(CC)n1c(C(C)C)cc2c3c(N)nc(N)nc3ccc21` [Compound 9d, 1,3-diamino-7-(1-ethylpropyl)-8-isopropyl-7H-pyrrolo(3,2-f)quinazoline], the IC50 in data set [1] and in [2] was below 1 nM each time.

On to `CCCc1cc2c3c(N)nc(N)nc3ccc2n1C(CC)CC` [Compound 9b, 1,3-diamino-7-(1-ethylpropyl)-8-propyl-7H-pyrrolo(3,2-f)quinazoline], for which the values for the IC50 in [1] and in [2] were 1.3 nM and 1.8 nM, respectively.

Turning to `CCC(CC)n1c(COC)cc2c3c(N)nc(N)nc3ccc21` [Compound 9a, 1,3-diamino-7-(1-ethylpropyl)-8-(methoxymethyl)-7H-pyrrolo (3,2-f)quinazoline], the IC50 was 3.3 nM in data set [1] and 4.1 nM in data set [2].

Take `CC(C)n1ccc2c3c(N)nc(N)nc3ccc21` [Compound 7d, 1,3-diamino-7-isopropyl-7H-pyrrolo(3,2-f)quinazoline]: the IC50 in [1] was determined as 48 nM; in [2] it was 35 nM.

For `CCC(C)(C)n1c(C)cc2c3c(N)nc(N)nc3ccc21` [Compound 10b, 1,3-diamino-7-(1,1-dimethylpropyl)-8-methyl-7H-pyrrolo(3,2-f)quinazoline], the IC50 in data set [1] and in data set [2] was below 1 nM each time.

On to `COc1cc(NCc2ccc3nc(N)nc(N)c3c2C)cc(OC)c1OC` [Trimetrexate, 5-methyl-6-[[(3,4,5-trimethoxyphenyl)amino]methyl]-2,4-quinazolinediamine, reference compound], for which, in [14], the Tissue concentration brain is 1.4 µg/g and the Tissue concentration plasma worked out at 13 µg/mL.

As for `Nc1nc(N)c2c(ccc3c2ccn3C2CCCCC2)n1` [Compound 7f, 1,3-diamino-7-cyclohexyl-7H-pyrrolo(3,2-f)quinazoline], the IC50 was 44 nM in [1] and 3 nM in data set [2].

For the molecule `CCCCc1cc2c3c(N)nc(N)nc3ccc2n1C(C)(C)C` [Compound 10a, 1,3-diamino-8-butyl-7-tert-butyl-7H-pyrrolo(3,2-f)quinazoline], the IC50 in data set [2] is 7 nM.

On to `CCc1cc2c3c(N)nc(N)nc3ccc2n1C(CC)CC` [Compound 6, 1,3-Diamino-8-ethyl-7-(1-ethylpropyl)-7H-pyrrolo(3,2-f)quinazoline], for which the IC50 in [1] and in [2] was below 1 nM throughout.

Consider `CCCC(CCC)n1ccc2c3c(N)nc(N)nc3ccc21` [Compound 4, 1,3-Diamino-7-(1-propylbutyl)-7H-pyrrolo[3,2-f]quinazoline hydrochloride], for which the IC50 in [1] is below 2 nM; in data set [2], below 1 nM.
